Experimental data from US20080280996A1, “Use of Carophyllenes in the Manufacture of Medicaments and Treatment of Bodily Conditions of Inflammation and Inflammatory Pain” (priority 2004, published 2008).

Tests used:
Type in all cases: in vivo
iNOS = experiment: Expression of enzyme iNOS in carrageenin-injected rat paw (Western blot); conditions: 50 mg/kg orally 60 minutes before carrageenin 300 μg/paw, subcutaneous paw tissue
Protocol: Animals treated with 0.9% (0.1 ml/10 g) saline were used as control. Another group of animals was treated with 0.5 mg/kg dexamethasone, subcutaneously, 4 hours before the test, and used as positive control. After 60 minutes, the animals received intraplantar injections of 100 μl of carrageenin (300 μg/paw) and were sacrificed after 180 minutes, and subcutaneous paw tissue was removed 240 minutes after the carrageenin injection. The collected tissue was immediately frozen in liquid nitrogen and re-suspended in a buffer of hypotonic lysis (10 mM HEPES N-2-hydroxyethylpiperazine-N'-2-ethanesulfonic acid, 1.5 mM MgCl2, 10 mM KCl, 0.5 mM PMSF phenylmethylsulphonyl fluoride, 1.5 μg/ml trypsin inhibitor, 7 μg/ml pepstatin A, 5 μg/ml leupeptin, 0.1 mM benzamidine 0.1 mM and 0.5 mM dithiothreitol) and homogenized. The homogenate was divided in three 2 ml aliquots, cooled in ice for 15 minutes, vigorously agitated and once again cooled in ice, in the presence of 20 μl 10% non-ionic detergent Nonidet P-40 (Roche Diagnostics, USA). […] The protein concentration was determined by the Bradford method (BioRad Laboratories Inc. kit, Milan, Italy). […] The bands thus obtained were quantified using a chemoluminescence kit and densitometry analysis (relative units) in radiographic films.

[1] = system: carrageenin-induced paw oedema; experiment: Carrageenin oedema in mouse paw; conditions: mice, carrageenin intraplantar; alpha-humulene 50 mg/kg orally 1 h before; dexamethasone 0.5 mg/kg subcutaneously 4 h before; 30 min to 48 h
Protocol: The test used below is described by Cunha et. al. in the publication Life Sci. 70:159-169, 2001. […] The left paw received the same volume of saline and was taken as a negative control. The swelling was measured with a plethysmometer (manufacturer: Ugo Basile, Italy) along various time intervals after the injection of the phlogistic agent. The difference between the volumes of the right and the left paw were quantified (in ml) and taken as an index of oedema. One hour before the test the animals were systemically treated (orally) with 50 mg/kg of alphahumulene or trans-caryophyllene. Graph 2 below compares the inhibition of the volume of the oedema by administration of either alpha-humulene or trans-caryophyllene with inhibition obtained with the administration of dexamethasone (0.5 mg/kg, injected subcutaneously 4 h before test) and used as positive control. Oedema volume measurement time point intervals were 30, 60, 120 and 240 min, 24 h and 48 h. Each point represents the average of 5 animals, and the vertical bars the mean standard error deviation.

histamine-induced oedema = experiment: Histamine oedema in mouse paw; conditions: mice, histamine 100 nmol/paw intraplantar; 50 mg/kg orally 1 h before; 10 min to 48 h
Protocol: The test used below is described by Cunha et. al. in the publication Life Sci. 70:159-169, 2001. Male 25 g-35 g mice were slightly sedated with ether and were injected 50 μl saline containing histamine (100 nmol/paw), intraplantar, in the right paw. The left paw received the same volume of saline and was taken as negative control. The swelling was measured with a plethysmometer (manufacturer: Ugo Basile, Italy) along various time intervals after the injection of the phlogistic agent. The difference between the volumes of the right and the left paw were quantified (in ml) and taken as an index of oedema. One hour before the test the animals were systemically treated (orally) with 50 mg/kg of alpha-humulene. Graph 4 below compares the inhibition of the volume of the oedema by administration of alpha-humulene. Oedema volume measurement time intervals were 10, 20, 30, 60, and 120 min, 24 h and 48 h. Each point represents the average of 5 animals, and the vertical bars the mean standard deviation.

TNFα = experiment: Levels of pro-inflammatory cytokine TNFα in carrageenin-injected rat paw (Elisa); conditions: 50 mg/kg orally 60 minutes before carrageenin 300 μg/paw, tissue after 180 minutes
Protocol: The test used below is described by Campos et. al. in the publication Br. J. Pharmacol. 135: 1107-1114, 2002, with minor modifications.
Male […]-180 g rats were orally given 50 mg/kg of trans-caryophyllene. Animals treated with 0.9% (0.1 ml/10 g) saline were used as control. Another group of animals was treated with 0.5 mg/kg dexamethasone, subcutaneously, 4 hours before the test, and used as positive control. After 60 minutes, the animals received intraplantar injections of 100 μl of carrageenin (300 μg/paw) and were sacrificed after 180 minutes. Control animals received saline. The subcutaneous tissue of the injected paws was removed and put in a phosphate buffer containing 0.5% tween 20, 0.1 mM benzametonium chloride, 10 mM EDTA, 2 μg/m aprotinin, 0.1 mM PMSF (phenyl methyl sulfonyl fluoride) and 0.5% BSA (bovine serum albumin). The tissues were homogenized and centrifuged at 3000 g, for 10 min, at −4° C. The supernatant was used in the test. The levels of TNFαwere measures with an Elisa kit, according to the manufacturer's instructions (R & D Systems®, USA). The tests were performed in duplicate, and repeated three times. The answers are expressed in pg/mg of tissue. […]

SMILES: C/C1=C\CC/C(C)=C/CC(C)(C)/C=C/C1 [alpha-humulene]
- expression of enzymes iNOS induced by carrageenin in the paws of rats (iNOS): markedly inhibited the expression
- inflammatory volume (paw oedema volume) [1]: reduced the inflammatory volume
- histamine-induced oedema formation (histamine-induced oedema): significantly reduced histamine-induced oedema formation

SMILES: C=C1CC/C=C(\C)CC[C@@H]2[C@@H]1CC2(C)C [trans-caryophyllene]
- production of pro-inflammatory cytokine TNFα induced by carrageenin in the paws of rats (TNFα): markedly inhibited the production
